“Also recorded” adds a separate entry of the source.
Assays:
[1] = system: MDA-MB-435S; assay: MDA-MB-435S nude mouse xenograft model; type: in vivo; settings: 300 mg/kg IP, 5 times per week for 3 weeks, nude mice; FIG. 4
Procedure: FBS was obtained from Sigma-Aldrich Corp. (St. Louis, Mo., USA), and all other reagents were obtained from Invitrogen Corp. (Carlsbad, Calif., USA). Approximately 4-5×10(6) cells that had been cryopreserved in liquid nitrogen were rapidly thawed at 37° C. and transferred to a 175 cm^2 tissue culture flask containing 50 ml of growth media and then incubated at 37° C. in a 5% CO2 incubator. The growth media was replaced every 2-3 days until the flask became 90% confluent, typically in 5-7 days. To passage and expand the cell line, a 90% confluent flask was washed with 10 ml of room temperature phosphate buffered saline (PBS) and the cells were disassociated by adding 5 ml 1× Trypsin-EDTA (Invitrogen) and incubating at 37° C. until the cells detached from the surface of the flask. To inactivate the trypsin, 5 ml of growth media was added and then the contents of the flask were centrifuged to pellet the cells. The supernatant was aspirated and the cell pellet was resuspended in 10 ml of growth media and the cell number determined using a hemocytometer. […]
Six to eight week old, female Crl:CD-1-nuBR (nude) mice were obtained from Charles River Laboratories (Wilmington, Mass., USA). […] Tumor volumes (V) were calculated by caliper measurement of the width (W), length (L) and thickness (T) of tumors using the following formula: V=[…]×(L×W×T). […]

[2] = system: Her2; assay: IC50 range for inhibition of Her2 degradation (Table 8); type: cell-based; settings: Homo sapiens
Procedure: Human high-Her2 breast carcinoma BT474 (HTB-20), SK-BR-3 (HTB-30) and MCF-7 breast carcinoma (HTB-22) from American Type Culture Collection, VA, USA were grown in Dulbecco's modified Eagle's medium with 4 mM L-glutamine and antibiotics (100 IU/ml penicillin and 100 ug/ml streptomycine; GibcoBRL). To obtain exponential cell growth, cells were trypsinized, counted and seeded at a cell density of 0.5×10^6 cells/ml regularly, every 3 days. All experiments were performed on day 1 after cell passage. […]
After treatment with a compound of the invention, cells were washed twice with 1×PBS/1% FBS, and then stained with anti-Her2-FITC (#340553, BD) for 30 min at 4° C. Cells were then washed three times in FACS buffer before the fixation in 0.5 ml 1% paraformadehydrede. Data was acquired on a FACSCalibur system. Isotype-matched controls were used to establish the non-specific staining of samples and to set the fluorescent markers. A total 10,000 events were recorded from each sample. Data were analysed by using CellQuest software (BD Biosciences).

[3] = system: Daudi; assay: Daudi non-Hodgkin's lymphoma SCID mouse xenograft; type: in vivo; settings: 25 mg/kg i.v., 5 times per week, 15 doses
Procedure: FBS was obtained from ATCC and all other reagents were obtained from Invitrogen Corp. (Carlsbad, Calif., USA). Cells that had been cryopreserved in liquid nitrogen were rapidly thawed at 37° C. and transferred to a tissue culture flask containing growth media and then incubated at 37° C. in a 5% CO2 incubator. To expand the cell line, cultures were passaged 1:2 to a density of 5×10(6) cells/ml every three days by adding an equal volume of fresh growth media. When the flasks reached a density of approximately 10×10(6) cells/ml, the above passaging process was repeated until sufficient cells had been obtained for implantation into mice.
(§1) Seven to eight week old, female CB17/Icr-Prkdc^scid/Crl (SCID) mice were obtained from Charles River Laboratories (Wilmington, Mass., USA). Animals were housed 4-5/cage in micro-isolators, with a 12 hr/12 hr light/dark cycle, acclimated for at least 1 week prior to use and fed normal laboratory chow ad libitum. Studies were conducted on animals that were between 8 and 12 weeks of age at the time of tumor cell implantation. […] Using a 27 gauge needle and 1 cc syringe, 0.1 ml of the cell suspension was injected subcutaneously into the shaved flanks of SCID mice. To implant SU-DHL-4 tumor cells into SCID mice, cell cultures were centrifuged to pellet the cells, the supernatant was aspirated and the cell pellet was resuspended in 10 ml of growth media and the cell number determined using a hemocytometer, washed in PBS and resuspended at a concentration of 10×10(7) cells/ml in 50% PBS and 50% Matrigel Basement Membrane Matrix (#354234; BD Biosciences; Bedford, Mass., USA). Using a 27 gauge needle and 1 cc syringe, 0.1 ml of the cell suspension was injected subcutaneously into the shaved flanks of SCID mice.
Tumors were then permitted to develop in vivo until the majority reached 100-200 mm^3 in tumor volume, which typically required 2-3 weeks following implantation. […] Tumor volumes (V) were calculated by caliper measurement of the width (W), length (L) and thickness (T) of tumors using the following formula: V=0.5236×(L×W×T). […]

[4] = system: SU-DHL-4; assay: SU-DHL-4 non-Hodgkin's lymphoma SCID mouse xenograft; type: in vivo; settings: for % T/C value: FIG. 6
Procedure: The human non-Hodgkin's lymphoma tumor cell line, SU-DHL-4 (DSMZ #ACC 495), sub-classified as a GCB-type diffuse large B-cell lymphoma, was obtained from Deutsche Sammlung von Mikroorganismen und Zellkulturen GmbH (DSMZ; Braunschweig, Germany). […] FBS was obtained from ATCC and all other reagents were obtained from Invitrogen Corp. (Carlsbad, Calif., USA). Approximately 3-4×10(7) cells that had been cryopreserved in liquid nitrogen were rapidly thawed at 37° C. and transferred to a 175 cm^2 tissue culture flask containing 50 ml of growth media and then incubated at 37° C. in a 5% CO2 incubator. To passage and expand the cell line, the contents of a flask were centrifuged to pellet the cells, the supernatant was aspirated and the cell pellet was resuspended in 10 ml of growth media and the cell number determined using a hemocytometer. Approximately 3-4×10(7) cells per flask were seeded into 175 cm^2 flasks containing 50 ml of growth media and incubated at 37° C. in a 5% CO2 incubator. The above passaging process was repeated every 2-3 days until sufficient cells had been obtained for implantation into mice.
as §1
Tumors were then permitted to develop in vivo until the majority reached 100-200 mm^3 in tumor volume, which typically required 2-3 weeks following implantation. […] Tumor volumes (V) were calculated by caliper measurement of the width (W), length (L) and thickness (T) of tumors using the following formula: V=0.5236×(L×W×T). Animals were randomized into treatment groups so that the median tumor volumes of each group were similar at the start of dosing. % T/C values, as a measure of efficacy, were determined as follows: • (i) If ΔT>0: % T/C=(ΔT/ΔC)×100 • (ii) If ΔT<0: % T/C=(ΔT/T0)×100 • (iii) ΔT=Change in median tumor volume between start of dosing and the end of study. • (iv) ΔC=Change in median tumor volume between start of dosing and the end of study. • (v) T0=Median tumor volume at start of dosing.
To formulate Compound #226 in DRD, stock solutions of the test article were prepared by dissolving the appropriate amounts of the compound in dimethyl sulfoxide (DMSO) by sonication in an ultrasonic water bath. Stock solutions were prepared weekly, stored at −20° C. and diluted fresh each day for dosing. A solution of 20% Cremophore RH40 (polyoxyl 40 hydrogenated castor oil; BASF Corp., Aktiengesellschaft, Ludwigshafen, Germany) in 5% dextrose in water (Abbott Laboratories, North Chicago, Ill., USA) was also prepared by first heating 100% Cremophore RH40 at 50-60° C. until liquefied and clear, diluting 1:5 with 100% D5W, reheating again until clear and then mixing well. This solution was stored at room temperature for up to 3 months prior to use. To prepare DRD formulations for daily dosing, DMSO stock solutions were diluted 1:10 with 20% Cremophore RH40. […]

Row | SMILES | toxicity (effect on body weights) [1] | IC50 [2] [nM] | overt toxicity ([3]; SCID mice) | % T/C value ([3]; SCID mice, FIG. 5) [%] | average bodyweight loss relative to the start of the study ([3]; day 41 / over the course of the study) [%] | % T/C value ([4]; 50 mg/kg i.v., 2 times per week, 4 doses, SCID mice) [%] | % T/C value ([4]; 75 mg/kg i.v., 2 times per week, 4 doses, SCID mice) [%] | % T/C value ([4]; 100 mg/kg i.v., 2 times per week, 4 doses, SCID mice) [%] | overt toxicity ([4]; 50, 75 and 100 mg/kg i.v., 2 times per week, 4 doses, SCID mice) | average bodyweight loss relative to the start of the study ([4]; highest dose group 100 mg/kg i.v., 2 times per week, 4 doses, day 31) [%] | average bodyweight loss ([4]; over the course of the study, dose not stated (text on FIG. 6)) [%]
1 | CCc1cc(-c2nnc(S)n2-c2cccc3ccccc23)c(O)cc1O [Compound 49, 3-(2,4-Dihydroxy-5-ethyl-phenyl)-4-(naphthalen-1-yl)-5-mercapto-triazole] | not associated with significant toxicity; also recorded: not toxic | < 3000 | – | – | – | – | – | – | – | – | –
2 | CC(C)c1cc(-c2nnc(O)n2-c2ccc3c(ccn3C)c2)c(O)cc1O [Compound 226, 3-(2,4-dihydroxy-5-isopropyl-phenyl)-4-(1-methyl-indol-5-yl)-5-hydroxy-[1,2,4] triazole] | – | – | not associated with overt toxicity; also recorded: Overt toxicity was not observed | 1.5 | −1.0 | 34.9 | 8.1 | −10.4 | not associated with overt toxicity; also recorded: Overt toxicity was not observed | −4.2 | −1.0

Reference: patent US20080004276A1, “Method for treating non-hodgkin's lymphoma” (priority 2006, published 2008)
